Experiments:
Experiment in all cases: relative viability (nuclei count vs DMSO), 5 days (fraction); higher = more cells survive
Bleomycin + Foretinib = compound: CC1=C(N=C(N=C1N)[C@H](CC(=O)N)NC[C@@H](C(=O)N)N)C(=O)N[C@@H]([C@H](C2=CN=CN2)OC3C(C(C(C(O3)CO)O)O)OC4C(C(C(C(O4)CO)O)OC(=O)N)O)C(=O)N[C@H](C)[C@H]([C@H](C)C(=O)N[C@@H]([C@@H](C)O)C(=O)NCCC5=NC(=CS5)C6=NC(=CS6)C(=O)NCCC[S+](C)C)O [Bleomycin] + COc1cc2c(Oc3ccc(NC(=O)C4(C(=O)Nc5ccc(F)cc5)CC4)cc3F)ccnc2cc1OCCCN1CCOCC1 [Foretinib] (partner 0.25 µM); settings: main component drawn
Summary of the method: (§1)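 For relative viability, nuclei counts in treated wells were divided by those in vehicle wells. Lung cancer cell lines had been pin-tool dosed in 1536-well plates the day after seeding and cultured for 5 days, then fixed and stained in one step (final 0.05% Triton X-100, 1% formaldehyde, 1 ug/ml Hoechst) and imaged at 4×. Doses were one drug alone or a fixed anchor-drug dose plus five library-drug doses (not always all listed) in √10 steps, and values are duplicate-plate medians.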

Etoposide + Pictilisib = compound: COc1cc([C@@H]2c3cc4c(cc3[C@@H](O[C@@H]3O[C@@H]5CO[C@@H](C)O[C@H]5[C@H](O)[C@H]3O)[C@H]3COC(=O)[C@H]23)OCO4)cc(OC)c1O [Etoposide] + CS(=O)(=O)N1CCN(Cc2cc3nc(-c4cccc5[nH]ncc45)nc(N4CCOCC4)c3s2)CC1 [Pictilisib] (partner 1 µM)
Summary of the method: as §1

Bleomycin + Linsitinib = compound: CC1=C(N=C(N=C1N)[C@H](CC(=O)N)NC[C@@H](C(=O)N)N)C(=O)N[C@@H]([C@H](C2=CN=CN2)OC3C(C(C(C(O3)CO)O)O)OC4C(C(C(C(O4)CO)O)OC(=O)N)O)C(=O)N[C@H](C)[C@H]([C@H](C)C(=O)N[C@@H]([C@@H](C)O)C(=O)NCCC5=NC(=CS5)C6=NC(=CS6)C(=O)NCCC[S+](C)C)O [Bleomycin] + C[C@]1(O)C[C@@H](c2nc(-c3ccc4ccc(-c5ccccc5)nc4c3)c3c(N)nccn32)C1 [Linsitinib] (partner 1 µM); settings: main component drawn
Summary of the method: as §1

Bleomycin + Crizotinib = compound: CC1=C(N=C(N=C1N)[C@H](CC(=O)N)NC[C@@H](C(=O)N)N)C(=O)N[C@@H]([C@H](C2=CN=CN2)OC3C(C(C(C(O3)CO)O)O)OC4C(C(C(C(O4)CO)O)OC(=O)N)O)C(=O)N[C@H](C)[C@H]([C@H](C)C(=O)N[C@@H]([C@@H](C)O)C(=O)NCCC5=NC(=CS5)C6=NC(=CS6)C(=O)NCCC[S+](C)C)O [Bleomycin] + C[C@@H](Oc1cc(-c2cnn(C3CCNCC3)c2)cnc1N)c1c(Cl)ccc(F)c1Cl [Crizotinib] (partner 1 µM); settings: main component drawn
Summary of the method: as §1

| Cell Line | relative viability (Bleomycin + Foretinib; first compound 0.01 µM) | relative viability (Bleomycin + Foretinib; first compound 0.03162 µM) | relative viability (Bleomycin + Foretinib; first compound 0.1 µM) | relative viability (Bleomycin + Foretinib; first compound 0.3162 µM) | relative viability (Bleomycin + Foretinib; first compound 1 µM) | relative viability (Etoposide + Pictilisib; first compound 0.01 µM) | relative viability (Etoposide + Pictilisib; first compound 0.03162 µM) | relative viability (Etoposide + Pictilisib; first compound 0.1 µM) | relative viability (Etoposide + Pictilisib; first compound 0.3162 µM) | relative viability (Etoposide + Pictilisib; first compound 1 µM) | relative viability (Bleomycin + Linsitinib; first compound 0.01 µM) | relative viability (Bleomycin + Linsitinib; first compound 0.03162 µM) | relative viability (Bleomycin + Linsitinib; first compound 0.1 µM) | relative viability (Bleomycin + Linsitinib; first compound 0.3162 µM) | relative viability (Bleomycin + Linsitinib; first compound 1 µM) | relative viability (Bleomycin + Crizotinib; first compound 0.01 µM) | relative viability (Bleomycin + Crizotinib; first compound 0.03162 µM) | relative viability (Bleomycin + Crizotinib; first compound 0.1 µM) | relative viability (Bleomycin + Crizotinib; first compound 0.3162 µM) | relative viability (Bleomycin + Crizotinib; first compound 1 µM) |
| --- | --- | --- | --- | --- | --- | --- | --- | --- | --- | --- | --- | --- | --- | --- | --- | --- | --- | --- | --- | --- |
| HCC-15 | 0.869 | 0.913 | 0.752 | 0.33 | 0.227 | 0.758 | 0.713 | 0.428 | 0.292 | 0.141 | 0.793 | 0.804 | 0.763 | 0.418 | 0.288 | 0.731 | 0.725 | 0.627 | 0.326 | 0.242 |
| A-427 | 0.862 | 0.873 | 0.935 | 0.481 | 0.284 | 0.726 | 0.817 | 0.507 | 0.469 | 0.169 | 0.999 | 1.08 | 1.05 | 0.893 | 0.266 | 0.738 | 0.776 | 0.67 | 0.402 | 0.223 |
| NCI-H23 | 0.699 | 0.586 | 0.408 | 0.247 | 0.218 | 0.433 | 0.487 | 0.275 | 0.334 | 0.185 | 0.292 | 0.253 | 0.225 | 0.152 | 0.137 | 0.249 | 0.231 | 0.251 | 0.162 | 0.153 |
| NCI-H1734 | 0.773 | 0.564 | 0.631 | 0.344 | 0.228 | 0.468 | 0.47 | 0.266 | 0.341 | 0.272 | 0.73 | 0.669 | 0.553 | 0.311 | 0.227 | 0.581 | 0.545 | 0.554 | 0.219 | 0.198 |
| NCI-H2087 | – | 0.827 | 0.872 | 0.205 | 0.158 | – | 1.09 | 0.551 | 0.543 | 0.235 | 0.717 | 0.977 | 0.895 | 0.374 | 0.255 | 0.617 | 0.771 | 0.735 | 0.303 | 0.274 |
| PC-3 [JPC-3] | 0.929 | 1.24 | 0.95 | 0.75 | 0.541 | 0.689 | 0.819 | 0.576 | 0.785 | 0.497 | 0.865 | 0.944 | 0.847 | 0.723 | 0.53 | 0.811 | 1 | 0.872 | 0.689 | 0.485 |
| NCI-H1915 | 0.929 | 0.885 | 0.763 | 0.431 | 0.257 | 0.934 | 1.14 | 0.634 | 0.782 | 0.481 | 0.891 | 1.01 | 0.813 | 0.428 | 0.216 | 0.661 | 0.665 | 0.45 | 0.337 | 0.183 |
| NCI-H1666 | 0.763 | 0.675 | 0.533 | 0.44 | 0.398 | 0.469 | 0.233 | 0.325 | 0.21 | 0.205 | 0.677 | 0.543 | 0.486 | 0.335 | 0.269 | 0.717 | 0.57 | 0.469 | 0.339 | 0.325 |
| HCC-366 | 0.872 | 0.702 | 0.337 | 0.0868 | 0.0636 | 0.198 | 0.188 | 0.0748 | 0.0491 | 0.0362 | 0.29 | 0.229 | 0.171 | 0.0412 | 0.0312 | 0.152 | 0.137 | 0.0986 | 0.0238 | 0.0225 |
| SK-MES-1 | 0.907 | 0.846 | 0.765 | 0.357 | 0.237 | 0.361 | 0.336 | 0.301 | 0.242 | 0.167 | 0.923 | 0.974 | 0.819 | 0.287 | 0.216 | 0.83 | 0.86 | 0.753 | 0.309 | 0.213 |
| NCI-H727 | 0.902 | 0.711 | 0.641 | – | 0.705 | 0.327 | 0.469 | 0.215 | 0.444 | 0.35 | 0.293 | 0.251 | 0.33 | 0.183 | 0.34 | 0.763 | 0.731 | 0.634 | 0.411 | 0.489 |
| RERF-LC-KJ | 0.735 | 0.693 | 0.633 | 0.377 | 0.307 | 0.533 | 0.586 | 0.459 | 0.529 | 0.365 | 0.617 | 0.502 | 0.502 | 0.233 | 0.22 | 0.541 | 0.513 | 0.421 | 0.23 | 0.197 |
| NCI-H1623 | 0.758 | 0.942 | 0.774 | 0.646 | 0.418 | – | – | – | – | – | – | – | – | – | – | – | – | – | – | – |
| Calu-6 | 0.646 | 0.549 | 0.29 | 0.132 | 0.107 | 0.841 | 0.908 | 0.764 | 0.457 | 0.25 | 0.741 | 0.6 | 0.508 | 0.174 | 0.125 | 0.514 | 0.394 | 0.379 | 0.141 | 0.181 |
